Measurements published in US12122816B2, “Long acting peptide tyrosine tyrosine (PYY) analogs and methods of use” (Intarcia Therapeutics, Inc., priority 2020, dated 2024).

Columns and labels:
Assay in all cases: NPY receptor functional assay (cAMP, HEK-CNG cells, ACTOne membrane potential dye)
Format in all cases: cell-based
[1] = target: T1, human Y1 receptor (Homo sapiens, UniProt P25929)
T1 sequence (P25929 1-384): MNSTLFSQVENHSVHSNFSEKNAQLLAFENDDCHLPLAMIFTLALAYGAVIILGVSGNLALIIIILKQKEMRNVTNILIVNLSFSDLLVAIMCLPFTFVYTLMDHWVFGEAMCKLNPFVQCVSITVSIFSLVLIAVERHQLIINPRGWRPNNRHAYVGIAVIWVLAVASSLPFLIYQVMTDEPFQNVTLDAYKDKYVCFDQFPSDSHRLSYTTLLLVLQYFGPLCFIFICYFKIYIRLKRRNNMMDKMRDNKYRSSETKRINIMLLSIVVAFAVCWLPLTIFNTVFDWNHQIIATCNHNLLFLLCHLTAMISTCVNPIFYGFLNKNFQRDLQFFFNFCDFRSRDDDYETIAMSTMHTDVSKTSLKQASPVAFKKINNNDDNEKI
Source text: The NPY family of G-protein coupled receptors include Y1, Y2, Y4, and Y5 in humans and rats. […] Following agonist binding, the receptor-G protein complex activates a downstream intracellular signaling cascade which leads to inhibition of adenylate cyclase and a reduction in intracellular cAMP levels.
HEK-CNG cells stably expressing the human or rat Y1, Y2, Y4 or Y5 receptors (Codex Biosolutions) were used to characterize the functional potency of peptide agonists using the ActOne™ membrane potential dye kit (Codex Biosolutions). In addition to each NPY receptor, each cell line encodes a proprietary exogenous Cyclic Nucleotide-Gated (CNG) channel (Codex Biosolutions). The channel is activated by elevated intracellular levels of cAMP, resulting in ion flux and cell membrane depolarization which can be detected with a calcium sensitive dye or fluorescent membrane potential (MP) dye. Cells were carried in growth media containing 90% DMEM, 10% FBS, 250 mcg/mL G418 and 1 mcg/mL puromycin for no more than 15 passages.
Prior to testing, cells were counted and dispensed at 14,000 cells per well (Y1, Y4 and Y5) or 28,000 cells per well (Y2) into black 384 well Poly-D-Lysine plates at 20 mcL per well. Covered plates were then incubated at room temperature for 30 minutes followed by an overnight incubation at 37° C. in 5% C02. The following day, media was removed and wells were washed once with 40 mcL Dulbecco's phosphate buffered saline. […] Ten microliters of experimental peptide or peptide standard was added in triplicate to wells and incubated for 50 minutes at room temperature in the dark. Following this incubation step, plates were read again as before (final read).
NPY receptor activation, leading to a reduction in intracellular cAMP levels, is detected as a decrease in isoproteranol induced fluorescent signal. Peptide standard and experimental values were initially transformed in excel using the formula: final read/initial read. […] Normalized data was analyzed from triplicate tests and used to estimate the EC50 for each test peptide on each receptor. Data was fit in GraphPad Prism software (v8.2.1) using a 3-parameter logistic curve model: Y=Bottom+(Top−Bottom)/(1+10^((LogEC50−X))). EC50 values were converted to pEC50 values using the formula: pEC50=−Log(EC50).

[2] = target: T2, human Y2 receptor (Homo sapiens, UniProt P49146); conditions: NPY2R pEC50, HEK-CNG cells; standard PYY(3-36); species (human or rat) not given
T2 sequence (P49146 1-381): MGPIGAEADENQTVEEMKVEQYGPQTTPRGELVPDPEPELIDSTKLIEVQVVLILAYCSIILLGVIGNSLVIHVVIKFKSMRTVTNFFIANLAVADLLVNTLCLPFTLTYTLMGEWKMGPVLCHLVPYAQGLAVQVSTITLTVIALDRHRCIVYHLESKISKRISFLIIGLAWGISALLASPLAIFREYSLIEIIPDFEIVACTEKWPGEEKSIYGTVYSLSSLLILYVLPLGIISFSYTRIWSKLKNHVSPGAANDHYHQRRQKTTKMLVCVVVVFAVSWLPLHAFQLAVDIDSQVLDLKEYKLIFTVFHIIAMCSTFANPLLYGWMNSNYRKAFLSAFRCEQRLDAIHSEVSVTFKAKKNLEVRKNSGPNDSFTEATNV
How it was run: (§1)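 HEK-CNG cells stably expressing each human receptor; peptides added in triplicate for 50 minutes at room temperature, with agonism read as decreased isoproterenol-induced membrane potential dye signal (final/initial read).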

[3] = target: T3, human Y5 receptor (Homo sapiens, UniProt Q15761); conditions: NPY5R pEC50, HEK-CNG cells; standard NPY; species (human or rat) not given
T3 sequence (Q15761 1-445): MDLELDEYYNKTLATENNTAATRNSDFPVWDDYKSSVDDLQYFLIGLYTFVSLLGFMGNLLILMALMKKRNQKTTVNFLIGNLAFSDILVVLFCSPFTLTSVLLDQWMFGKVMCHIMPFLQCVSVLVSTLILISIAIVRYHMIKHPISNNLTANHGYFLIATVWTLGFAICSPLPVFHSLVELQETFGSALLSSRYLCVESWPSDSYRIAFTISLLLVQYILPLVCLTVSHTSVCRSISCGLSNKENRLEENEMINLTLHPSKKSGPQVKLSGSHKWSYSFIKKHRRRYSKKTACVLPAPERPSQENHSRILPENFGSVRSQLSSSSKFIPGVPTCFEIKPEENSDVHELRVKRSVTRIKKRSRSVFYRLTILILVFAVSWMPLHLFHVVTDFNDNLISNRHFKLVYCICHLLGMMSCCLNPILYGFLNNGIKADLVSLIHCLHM
How it was run: as §1

| SMILES | EC50 [1] [nM] | EC50 [2] [nM] | EC50 [3] [nM] |
| --- | --- | --- | --- |
| CC(C)C[C@H](NC(=O)[C@H](CC(=O)O)NC(=O)[C@H](CCCCN)NC(=O)[C@H](Cc1ccc(O)cc1)NC(=O)[C@H](Cc1ccc(O)cc1)NC(=O)[C@H](CCCNC(=N)N)NC(=O)[C@H](CC(N)=O)NC(=O)[C@H](Cc1c[nH]c2ccccc12)NC(=O)[C@H](CCC(=O)O)NC(=O)[C@H](CCC(=O)O)NC(=O)[C@@H]1CCCN1C(=O)[C@H](CO)NC(=O)[C@H](C)NC(=O)[C@H](CC(=O)O)NC(=O)[C@H](CCCCNC(=O)CC[C@H](NC(=O)CC[C@H](NC(=O)CCCCCCCCCCCCCCCCCCC(=O)O)C(=O)O)C(=O)O)NC(=O)CNC(=O)[C@@H]1CCCN1C(=O)[C@H](CCCCN)NC(=O)[C@H](CCC(=O)O)NC(=O)[C@@H]1CCCN1C(=O)[C@H](CCCCN)NC(=O)[C@@H]1CCCN1)C(=O)N[C@@H](CCCNC(=N)N)C(=O)N[C@@H](Cc1c[nH]cn1)C(=O)N[C@@H](Cc1ccc(O)cc1)C(=O)N[C@@H](CC(C)C)C(=O)N[C@@H](CC(N)=O)C(=O)N[C@@H](Cc1c[nH]c2ccccc12)C(=O)N[C@@H](CC(C)C)C(=O)N[C@H](C(=O)N[C@@H](CCCNC(=N)N)C(=O)N[C@@H](CCC(N)=O)C(=O)N[C@@H](CCCNC(=N)N)C(=O)N[C@@H](Cc1ccccc1)C(N)=O)[C@@H](C)O [Compound A74] | 0.501 | 0.0501 | 1 |
| CC(C)C[C@H](NC(=O)[C@H](Cc1ccc(O)cc1)NC(=O)[C@H](Cc1c[nH]cn1)NC(=O)[C@H](CCCNC(=N)N)NC(=O)[C@H](CC(C)C)NC(=O)[C@H](CC(=O)O)NC(=O)[C@@H](CCCCNC(=O)CC[C@H](NC(=O)COCCOCCNC(=O)COCCOCCNC(=O)CC[C@H](NC(=O)CCCCCCCCCCCCCCCCCCC(=O)O)C(=O)O)C(=O)O)NC(=O)[C@H](Cc1ccc(O)cc1)NC(=O)[C@H](Cc1ccc(O)cc1)NC(=O)[C@H](CCCNC(=N)N)NC(=O)[C@H](CC(N)=O)NC(=O)[C@H](Cc1c[nH]c2ccccc12)NC(=O)[C@H](CCC(=O)O)NC(=O)[C@H](CCC(=O)O)NC(=O)[C@@H]1CCCN1C(=O)[C@H](CO)NC(=O)[C@H](C)NC(=O)[C@H](CC(=O)O)NC(=O)[C@H](CCCCN)NC(=O)CNC(=O)[C@@H]1CCCN1C(=O)[C@H](C)NC(=O)[C@H](CCC(=O)O)NC(=O)[C@@H]1CCCN1C(=O)[C@H](CCCCN)NC(=O)[C@@H]1CCCN1)C(=O)N[C@@H](CC(N)=O)C(=O)N[C@@H](Cc1c[nH]c2ccccc12)C(=O)N[C@@H](CC(C)C)C(=O)N[C@H](C(=O)N[C@@H](CCCNC(=N)N)C(=O)N[C@@H](CCC(N)=O)C(=O)N[C@@H](CCCNC(=N)N)C(=O)N[C@@H](Cc1ccccc1)C(N)=O)[C@@H](C)O [Compound A65] | 10 | 0.0631 | 2.51 |
| CC(C)C[C@H](NC(=O)[C@H](CC(=O)O)NC(=O)[C@H](CCCCN)NC(=O)[C@H](Cc1ccc(O)cc1)NC(=O)[C@H](Cc1ccc(O)cc1)NC(=O)[C@H](CCCNC(=N)N)NC(=O)[C@H](CC(N)=O)NC(=O)[C@H](Cc1c[nH]c2ccccc12)NC(=O)[C@H](CCC(=O)O)NC(=O)[C@H](CCCCN)NC(=O)[C@@H]1CCCN1C(=O)[C@H](CO)NC(=O)[C@H](C)NC(=O)[C@H](CC(=O)O)NC(=O)[C@H](CCC(=O)O)NC(=O)CNC(=O)[C@@H]1CCCN1C(=O)[C@H](CCCCNC(=O)CC[C@H](NC(=O)CC[C@H](NC(=O)CCCCCCCCCCCCCCCCC(=O)O)C(=O)O)C(=O)O)NC(=O)[C@H](CCC(=O)O)NC(=O)[C@@H]1CCCN1C(=O)[C@H](CCCCN)NC(=O)[C@@H]1CCCN1)C(=O)N[C@@H](CCCNC(=N)N)C(=O)N[C@@H](Cc1c[nH]cn1)C(=O)N[C@@H](Cc1ccc(O)cc1)C(=O)N[C@@H](CC(C)C)C(=O)N[C@@H](CC(N)=O)C(=O)N[C@@H](Cc1c[nH]c2ccccc12)C(=O)N[C@@H](CC(C)C)C(=O)N[C@H](C(=O)N[C@@H](CCCNC(=N)N)C(=O)N[C@@H](CCC(N)=O)C(=O)N[C@@H](CCCNC(=N)N)C(=O)N[C@@H](Cc1ccccc1)C(N)=O)[C@@H](C)O [Compound A38] | 2.51 | – | 3.98 |
